Each structure is given as a SMILES string. Read-outs that look alike come from different tables or passages of the source. Some results are limits rather than exact numbers.

Assay [1] has as its system Myotonic Dystrophy 1 affected patient fibroblasts (Coriel GM04602; 1600 CTG repeats). The experiment in a line: DM1 foci reduction assay (EC50 assay; CAG10-Cy3 FISH, foci per nucleus). It counts as cell-based. In a few lines: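 GM04602 DM1 patient fibroblasts (1600 CTG repeats) seeded 24 h, then treated 48 h at 37 °C with an 8-point 1:3 dose series from 3 μM. Cells PFA-fixed, ethanol-permeabilized and hybridized overnight with 5 nM CAG10-Cy3 probe, DAPI counterstained. Imaged at 20×, 4 fields per well, as average foci per nucleus.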

A further assay has as its system F35T cells. Nature of the assay: Foci reduction in FECD (CAG10-Cy3 FISH, foci per nucleus). It counts as cell-based. In a few lines:
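F35T cells, 5000 per well, were treated for 48 h at 37 °C, 5% CO2 in an 8-point dose response. Cells were then fixed in 4% PFA, permeabilized in 70% ethanol and hybridized overnight at 37 °C with a CAG10-Cy3 probe in 30% formamide/2×SSC. After DAPI staining, imaging gave foci per nucleus.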

[2] abbreviates: Homo sapiens, Fibroblast; DM1 patient fibroblasts, 48 h treatment, foci per nucleus; read-out: DM1 EC50, 48 h.
Setting [3] is: F35T cells, 48 h treatment, foci per nucleus; read-out: FECD EC50, 48 h.
[4] abbreviates: Homo sapiens, Fibroblast; DM1 patient fibroblasts, foci per nucleus, 48 h treatment; read-out: DM1 EC50, 48 h.
Where [5] appears, read: F35T cells, foci per nucleus, 48 h treatment; read-out: FECD EC50, 48 h.

`Cn1cc(NC(=O)c2nc(NC(=O)CCNC(=O)c3cc(NC(=O)c4nccn4C)cn3C)cn2C)cc1C(=O)NCCCC(=O)Nc1cn(C)c(C(=O)NCCC(=O)Nc2cc(C(=O)Nc3cn(C)c(C(=O)NCCC(=O)N4CC=C(C#CC5CCNCC5)CC4)n3)n(C)c2)n1` [Compound B-348]: the values for the EC50 (in assay [1] (setting [2]); with F35T cells (setting [3])) were 500 to 1000 nM and 100 to 500 nM, respectively.
Consider `CC(C)C(=O)N1CCC(C#CC#CC2CCN(CCOCCOCCOCCNC(=O)CCNC(=O)c3nc(NC(=O)c4cc(NC(=O)CCNC(=O)c5nc(NC(=O)CCCNC(=O)c6cc(NC(=O)c7nc(NC(=O)CCNC(=O)c8cc(NC(=O)c9nccn9C)cn8C)cn7C)cn6C)cn5C)cn4C)cn3C)CC2)CC1` [Compound B-122], for which the EC50 (in assay [1] (setting [2]); with F35T cells (setting [3])) was 100 to 500 nM each time.
In the case of `CN(C)CCCn1cc(NC(=O)c2nc(NC(=O)CCNC(=O)c3cc(NC(=O)c4nccn4C)cn3C)cn2C)cc1C(=O)NCCCC(=O)Nc1cn(C)c(C(=O)NCCC(=O)Nc2cc(C(=O)Nc3cn(C)c(C(=O)NCCC(=O)N4CCCCC4)n3)n(C)c2)n1` [Compound B-430], the EC50 (in assay [1] (setting [4]); in the assay with F35T cells (setting [5])) was less than 100 nM in each case.
On to `CN1CCN(C2CCN(C(=O)CCNC(=O)c3nc(NC(=O)c4cc(NC(=O)CCNC(=O)c5nc(NC(=O)CCCNC(=O)c6cc(NC(=O)c7nc(NC(=O)CCNC(=O)c8cc(NC(=O)c9nccn9C)cn8C)cn7C)cn6C)cn5C)cn4C)cn3C)CC2)CC1` [Compound B-131], for which the EC50 (as a rule, the concentration that produces a half-maximal response) in assay [1] (setting [2]) is 100 to 500 nM; with F35T cells (setting [3]), less than 100 nM.
The matching figures for `CCCNC(=O)CCNC(=O)c1nc(NC(=O)c2cc(NC(=O)CCNC(=O)c3nc(NC(=O)CCCNC(=O)c4cc(NC(=O)c5nc(NC(=O)CCNC(=O)c6cc(NC(=O)c7nccn7C)cn6C)cn5C)cn4CCCN)cn3C)cn2C)cn1C` [Compound B-272]: 100 to 500 nM and less than 100 nM.
Regarding `CC(=O)N1CCC(C#CC#CC2CCN(C(=O)CCNC(=O)c3nc(NC(=O)c4cc(NC(=O)CCNC(=O)c5nc(NC(=O)CCCNC(=O)c6cc(NC(=O)c7nc(NC(=O)CCNC(=O)c8cc(NC(=O)c9nccn9C)cn8C)cn7C)cn6CCN)cn5C)cn4C)cn3C)CC2)CC1` [Compound B-266], the EC50 (in assay [1] (setting [2]); in the assay on F35T cells (setting [3])) was less than 100 nM in each case.
Consider `CN1CCN(CCCNC(=O)CCNC(=O)c2nc(NC(=O)c3cc(NC(=O)CCNC(=O)c4nc(NC(=O)CCCNC(=O)c5cc(NC(=O)c6nc(NC(=O)CCNC(=O)c7cc(NC(=O)c8nccn8C)cn7C)cn6C)cn5C)cn4C)cn3C)cn2C)CC1` [Compound B-36], for which the EC50 (in assay [1] (setting [2]); in the assay with F35T cells (setting [3])) was 100 to 500 nM throughout.
On to `CCCNC(=O)CCNC(=O)c1cc(NC(=O)c2nc(NC(=O)CCNC(=O)c3cc(NC(=O)c4nc(NC(=O)CCCNC(=O)c5cc(NC(=O)c6nc(NC(=O)CCNC(=O)c7cc(NC(=O)c8nccn8C)cn7C)cn6C)cn5C)cn4C)cn3C)cn2C)cn1C` [Compound B-10], for which the EC50 is more than 1000 nM in assay [1] (setting [2]) and less than 100 nM in the assay with F35T cells (setting [3]).
Turning to `Cn1cc(NC(=O)c2nc(NC(=O)CCNC(=O)c3cc(NC(=O)c4nccn4C)cn3C)cn2C)cc1C(=O)NCCCC(=O)Nc1cn(C)c(C(=O)NCCC(=O)Nc2cc(C(=O)Nc3cn(C)c(C(=O)NCCCCN=[N+]=[N-])n3)n(C)c2)n1` [Compound B-203], the EC50 (in assay [1] (setting [2]); in the assay with F35T cells (setting [3])) was less than 100 nM each time.
On to `Cn1cc(NC(=O)c2nc(NC(=O)CCNC(=O)c3cc(NC(=O)c4nccn4C)cn3C)cn2C)cc1C(=O)NCCCC(=O)Nc1cn(C)c(C(=O)NCCC(=O)Nc2cc(C(=O)Nc3cn(C)c(C(=O)NCCC(=O)NCCCN4CCOCC4)n3)n(C)c2)n1` [Compound B-37], for which the EC50 (in assay [1] (setting [2]); with F35T cells (setting [3])) was 100 to 500 nM each time.
On to `CN(CCCNC(=O)c1cccc(C(=O)O)c1)CCCNC(=O)c1nc(NC(=O)c2cc(NC(=O)CCNC(=O)c3nc(NC(=O)CCCNC(=O)c4cc(NC(=O)c5nc(NC(=O)CCNC(=O)c6cc(NC(=O)c7nccn7C)cn6C)cn5C)cn4CCCCCCN=[N+]=[N-])cn3C)cn2C)cn1C` [Compound B-233], for which the EC50 (in assay [1] (setting [2]); with F35T cells (setting [3])) was 100 to 500 nM in each case.
With `Cn1cc(NC(=O)c2nc(NC(=O)CCNC(=O)c3cc(NC(=O)c4nccn4C)cn3C)cn2C)cc1C(=O)NCCCC(=O)Nc1cn(C)c(C(=O)NCCC(=O)Nc2cc(C(=O)Nc3cn(C)c(C(=O)NCCC(=O)N4CCC(C#CC#CC5CCOCC5)CC4)n3)n(C)c2)n1` [Compound B-380], the EC50 (in assay [1] (setting [2]); with F35T cells (setting [3])) was less than 100 nM in each case.
Consider `CN(C)CCCNC(=O)c1nc(NC(=O)c2cc(NC(=O)CCNC(=O)c3nc(NC(=O)CCCNC(=O)c4cc(NC(=O)c5nc(NC(=O)CCNC(=O)c6cc(NC(=O)c7nccn7C)cn6C)cn5C)cn4C)cn3C)cn2C)cn1C` [Compound B-108], for which the EC50 (in assay [1] (setting [2]); in the assay with F35T cells (setting [3])) was 100 to 500 nM each time.
As for `CN(C)CCCNC(=O)c1cc(NC(=O)CCNC(=O)c2nc(NC(=O)[C@H](N)CCNC(=O)c3cc(NC(=O)c4nc(NC(=O)CCNC(=O)c5cc(NC(=O)c6nccn6C)cn5C)cn4C)cn3C)cn2C)cn1C` [Compound B-367], the EC50 (in assay [1] (setting [2]); with F35T cells (setting [3])) was more than 1000 nM in each case.
Take `COCCOCCOCCOCCN(CCCCCn1cc(NC(=O)c2nc(NC(=O)CCNC(=O)c3cc(NC(=O)c4nccn4C)cn3C)cn2C)cc1C(=O)NCCCC(=O)Nc1cn(C)c(C(=O)NCCC(=O)Nc2cc(C(=O)Nc3cn(C)c(C(=O)NCCC(=O)NCCOCCOCCOCCN4CCC(C#CC#CC5CCNCC5)CC4)n3)n(C)c2)n1)CCOCCOCCOCCOC` [Compound B-227]: the EC50 (in assay [1] (setting [2]); in the assay on F35T cells (setting [3])) was more than 1000 nM in each case.
As to `CN(C)CCCCNC(=O)c1nc(NC(=O)c2cc(NC(=O)CCNC(=O)c3nc(NC(=O)C[C@@H](N)CNC(=O)c4cc(NC(=O)c5nc(NC(=O)CCNC(=O)c6cc(NC(=O)c7nccn7C)cn6C)cn5C)cn4C)cn3C)cn2C)cn1C` [Compound B-422], the concentration giving a half-maximal response (EC50) (in assay [1] (setting [4]); in the assay with F35T cells (setting [5])) was more than 1000 nM throughout.
With `Cn1cc(NC(=O)c2nc(NC(=O)CCNC(=O)c3cc(NC(=O)c4nccn4C)cn3C)cn2C)cc1C(=O)NCCCC(=O)Nc1cn(C)c(C(=O)NCCC(=O)Nc2cc(C(=O)Nc3cn(C)c(C(=O)NCCC(=O)NCCCCCN4CCC(C#CC#CC5CCN(C(=O)c6ccc(C(C)(C)C)cc6)CC5)CC4)n3)n(C)c2)n1` [Compound B-177], the figures for the EC50 (in assay [1] (setting [2]); in the assay on F35T cells (setting [3])) were 500 to 1000 nM and 100 to 500 nM, respectively.
As for `CN(C)CCCCNC(=O)c1nc(NC(=O)c2cc(NC(=O)CCNC(=O)c3nc(NC(=O)[C@H](N)CCNC(=O)c4cc(NC(=O)c5nc(NC(=O)CCNC(=O)c6cc(NC(=O)c7nccn7C)cn6C)cn5C)cn4C)cn3C)cn2C)cn1C` [Compound B-410], the EC50 in assay [1] (setting [4]) is 500 to 1000 nM; in the assay with F35T cells (setting [5]), more than 1000 nM.
Turning to `CCCNC(=O)c1nc(NC(=O)c2cc(NC(=O)CCNC(=O)c3nc(NC(=O)C[C@@H](N)CNC(=O)c4cc(NC(=O)c5nc(NC(=O)CCNC(=O)c6cc(NC(=O)c7nccn7C)cn6C)cn5C)cn4C)cn3C)cn2C)cn1C` [Compound B-421], the EC50 (in assay [1] (setting [4]); in the assay on F35T cells (setting [5])) was less than 100 nM each time.
As for `CCCCn1cc(NC(=O)c2nc(NC(=O)CCNC(=O)c3cc(NC(=O)c4nccn4C)cn3C)cn2C)cc1C(=O)NCC[C@@H](N)C(=O)Nc1cn(C)c(C(=O)NCCC(=O)Nc2cc(C(=O)Nc3cn(C)c(C(=O)NCCC(=O)N4CCN(C)CC4)n3)n(C)c2)n1` [Compound B-408], the EC50 (in assay [1] (setting [2]); in the assay with F35T cells (setting [3])) was 100 to 500 nM throughout.
On to `CN1CCN(C(=O)CCNC(=O)c2nc(NC(=O)c3cc(NC(=O)CCNC(=O)c4nc(NC(=O)[C@H](N)CCNC(=O)c5cc(NC(=O)c6nc(NC(=O)CCNC(=O)c7cc(NC(=O)c8nccn8C)cn7C)cn6C)cn5C)cn4C)cn3C)cn2C)CC1` [Compound B-405], for which the EC50 (in assay [1] (setting [2]); with F35T cells (setting [3])) was more than 1000 nM in each case.
